Experimental data reported in ChEMBL document CHEMBL5518218, “Discovery of Novel PD-L1 Small-Molecular Inhibitors with Potent In Vivo Anti-tumor Immune Activity” (J Med Chem, 2024).
Active and inactive are the calls of the source. The rule behind the calls is not given here.

Columns and labels:
[1] = Prodrug conversion in Sprague-Dawley rat assessed as half life of (2-(benzo[c][1,2,5]oxadiazol-5-ylmethoxy)-5-chloro-4-((2-fluoro-3'-(3-(4-hydroxypiperidin-1-yl)propoxy)-[1,1'-biphenyl]-3-yl)methoxy)benzyl)-D-serine at 9 mg/kg, iv measured upto 24 hrs by LC-MS/MS analysis; assay type: ADME, organism-based; conditions: in vivo
[2] = Prodrug conversion in Sprague-Dawley rat assessed as Tmax of (2-(benzo[c][1,2,5]oxadiazol-5-ylmethoxy)-5-chloro-4-((2-fluoro-3'-(3-(4-hydroxypiperidin-1-yl)propoxy)-[1,1'-biphenyl]-3-yl)methoxy)benzyl)-D-serine at 9 mg/kg, iv measured upto 24 hrs by LC-MS/MS analysis; assay type: ADME, organism-based; conditions: in vivo
[3] = Prodrug conversion in Sprague-Dawley rat assessed as Cmax of (2-(benzo[c][1,2,5]oxadiazol-5-ylmethoxy)-5-chloro-4-((2-fluoro-3'-(3-(4-hydroxypiperidin-1-yl)propoxy)-[1,1'-biphenyl]-3-yl)methoxy)benzyl)-D-serine at 9 mg/kg, iv measured upto 24 hrs by LC-MS/MS analysis; assay type: ADME, organism-based; conditions: in vivo
[4] = Prodrug conversion in Sprague-Dawley rat assessed as AUC (0 to t) of (2-(benzo[c][1,2,5]oxadiazol-5-ylmethoxy)-5-chloro-4-((2-fluoro-3'-(3-(4-hydroxypiperidin-1-yl)propoxy)-[1,1'-biphenyl]-3-yl)methoxy)benzyl)-D-serine at 9 mg/kg, iv measured upto 24 hrs by LC-MS/MS analysis; assay type: ADME, organism-based; conditions: in vivo
[5] = Prodrug conversion in Sprague-Dawley rat assessed as clearance of (2-(benzo[c][1,2,5]oxadiazol-5-ylmethoxy)-5-chloro-4-((2-fluoro-3'-(3-(4-hydroxypiperidin-1-yl)propoxy)-[1,1'-biphenyl]-3-yl)methoxy)benzyl)-D-serine at 9 mg/kg, iv measured upto 24 hrs by LC-MS/MS analysis; assay type: ADME, organism-based; conditions: in vivo
[6] = Prodrug conversion in Sprague-Dawley rat assessed as half life of (2-(benzo[c][1,2,5]oxadiazol-5-ylmethoxy)-5-chloro-4-((2-fluoro-3'-(3-(4-hydroxypiperidin-1-yl)propoxy)-[1,1'-biphenyl]-3-yl)methoxy)benzyl)-D-serine at 45 mg/kg measured upto 24 hrs by LC-MS/MS analysis; assay type: ADME, organism-based; conditions: in vivo, po
[7] = Prodrug conversion in Sprague-Dawley rat assessed as AUC (0 to t) of (2-(benzo[c][1,2,5]oxadiazol-5-ylmethoxy)-5-chloro-4-((2-fluoro-3'-(3-(4-hydroxypiperidin-1-yl)propoxy)-[1,1'-biphenyl]-3-yl)methoxy)benzyl)-D-serine at 45 mg/kg, po measured upto 24 hrs by LC-MS/MS analysis; assay type: ADME, organism-based; conditions: in vivo
[8] = Prodrug conversion in C57BL/6 mouse assessed as half life of (2-(benzo[c][1,2,5]oxadiazol-5-ylmethoxy)-5-chloro-4-((2-fluoro-3'-(3-(4-hydroxypiperidin-1-yl)propoxy)-[1,1'-biphenyl]-3-yl)methoxy)benzyl)-D-serine at 2 mg/kg, iv measured upto 24 hrs by LC-MS/MS analysis; assay type: ADME, organism-based; conditions: in vivo
[9] = Prodrug conversion in C57BL/6 mouse assessed as Tmax of (2-(benzo[c][1,2,5]oxadiazol-5-ylmethoxy)-5-chloro-4-((2-fluoro-3'-(3-(4-hydroxypiperidin-1-yl)propoxy)-[1,1'-biphenyl]-3-yl)methoxy)benzyl)-D-serine at 2 mg/kg, iv measured upto 24 hrs by LC-MS/MS analysis; assay type: ADME, organism-based; conditions: in vivo
[10] = Prodrug conversion in C57BL/6 mouse assessed as Cmax of (2-(benzo[c][1,2,5]oxadiazol-5-ylmethoxy)-5-chloro-4-((2-fluoro-3'-(3-(4-hydroxypiperidin-1-yl)propoxy)-[1,1'-biphenyl]-3-yl)methoxy)benzyl)-D-serine at 2 mg/kg, iv measured upto 24 hrs by LC-MS/MS analysis; assay type: ADME, organism-based; conditions: in vivo
[11] = Prodrug conversion in C57BL/6 mouse assessed as clearance of (2-(benzo[c][1,2,5]oxadiazol-5-ylmethoxy)-5-chloro-4-((2-fluoro-3'-(3-(4-hydroxypiperidin-1-yl)propoxy)-[1,1'-biphenyl]-3-yl)methoxy)benzyl)-D-serine at 2 mg/kg, iv measured upto 24 hrs by LC-MS/MS analysis; assay type: ADME, organism-based; conditions: in vivo
[12] = Prodrug conversion in C57BL/6 mouse assessed as half life of (2-(benzo[c][1,2,5]oxadiazol-5-ylmethoxy)-5-chloro-4-((2-fluoro-3'-(3-(4-hydroxypiperidin-1-yl)propoxy)-[1,1'-biphenyl]-3-yl)methoxy)benzyl)-D-serine at 10 mg/kg, po measured upto 24 hrs by LC-MS/MS analysis; assay type: ADME, organism-based; conditions: in vivo
[13] = Prodrug conversion in C57BL/6 mouse assessed as Cmax of (2-(benzo[c][1,2,5]oxadiazol-5-ylmethoxy)-5-chloro-4-((2-fluoro-3'-(3-(4-hydroxypiperidin-1-yl)propoxy)-[1,1'-biphenyl]-3-yl)methoxy)benzyl)-D-serine at 10 mg/kg, po measured upto 24 hrs by LC-MS/MS analysis; assay type: ADME, organism-based; conditions: in vivo
[14] = Prodrug conversion in C57BL/6 mouse assessed as oral bioavailability of (2-(benzo[c][1,2,5]oxadiazol-5-ylmethoxy)-5-chloro-4-((2-fluoro-3'-(3-(4-hydroxypiperidin-1-yl)propoxy)-[1,1'-biphenyl]-3-yl)methoxy)benzyl)-D-serine at 10 mg/kg measured upto 24 hrs by LC-MS/MS analysis; assay type: ADME, organism-based; conditions: in vivo
[15] = Lipophilicity, log D of the compound at pH 7.4; assay type: physicochemical; conditions: buffer
[16] = Water solubility of the compound; assay type: physicochemical
[17] = Acute toxicity in mouse assessed as signs of distress at 1000 mg/kg, po administered as single dose for 14 days; assay type: organism-based; conditions: in vivo, 336 h, time 14 day
[18] = Acute toxicity in mouse assessed as mortality at 1000 mg/kg, po administered as single dose for 14 days; assay type: organism-based; conditions: in vivo, 336 h, time 14 day
MC-38 [19] = assay: Antitumor activity against mouse MC38 cells implanted in C57BL/6J mouse assessed as tumor growth inhibition at 25 mg/kg, po measured for 20 days; assay type: functional; conditions: MC-38, 480 h, time 20 day, read-out: TGI
MC-38 [20] = assay: Antitumor activity against mouse MC38 cells implanted in C57BL/6J mouse assessed as tumor growth inhibition at 5 mg/kg, po measured for 20 days; assay type: functional; conditions: MC-38, 480 h, time 20 day, read-out: TGI
CT26 [21] = assay: Antitumor activity against mouse CT26 cells implanted in BALB/c mouse assessed as tumor growth inhibition at 25 mg/kg, ip measured for 18 days; assay type: functional; conditions: CT26, 432 h, time 18 day, read-out: TGI
CT26 [22] = assay: Antitumor activity against mouse CT26 cells implanted in BALB/c mouse assessed as increase in percentage of CD8+ cells at 25 mg/kg, ip measured for 20 days; assay type: functional; conditions: time 20 day
CT26 [23] = assay: Antitumor activity against mouse CT26 cells implanted in BALB/c mouse assessed as increase in INF-gamma level at 25 mg/kg, ip measured for 20 days; assay type: functional, organism-based; conditions: time 20.0 day
MC-38 [24] = assay: Cytotoxicity against mouse MC38 cells assessed as effect on cell viability at 0.07 to 150 uM incubated for 48 hrs by CCK-8 assay; assay type: functional, cell-based; conditions: dose 0.07-150 µM
CT26 [25] = assay: Cytotoxicity against mouse CT26 cells assessed as effect on cell viability at 0.07 to 150 uM incubated for 48 hrs by CCK-8 assay; assay type: functional, cell-based; conditions: dose 0.07-150 µM

With `CCOC(=O)[C@@H](CO)NCc1cc(Cl)c(OCc2cccc(-c3cccc(OCCCN4CCC(O)CC4)c3)c2F)cc1OCc1ccc2nonc2c1.Cl.Cl` the t1/2 [1] was 7.9 h, the Tmax [2] was 4.8 min and the Cmax [3] was 3760.7 ng/mL. It also gave an AUCt [4] of 2373.5 ng·h/mL, a CL [5] of 23.77 mL/min/kg and a t1/2 [6] of 4.3 h. It also gave an AUCt [7] of 405.6 ng·h/mL, a t1/2 [8] of 1.7 h and a Tmax [9] of 4.8 min. It also gave a Cmax [10] of 872.3 ng/mL, a CL [11] of 61.845 mL/min/kg and a t1/2 [12] of 1.6 h. The Cmax [13] was 255.7 ng/mL, the F [14] was 11.5% and the logD [15] was 1.59. The solubility [16] was 9.52 µM, the Activity [17] was “Non-Toxic” and the Activity [18] was “Non-Toxic”. It also gave an inhibition in vivo at 25 mg/kg (MC-38 [19]) of 73.6%, an inhibition in vivo at 5 mg/kg (MC-38 [20]) of 49.2% and an inhibition in vivo at 25 mg/kg (CT26 [21]) of 54.8%. The Activity (CT26 [22]) was 7.2%, the Activity (CT26 [23]) was “Active” and the Activity (MC-38 [24]) was “inactive”. The Activity (CT26 [25]) was “inactive”.
